Results from patent US3987052A, “6-Phenyl-4H-s-triazolo[4,3-a][1,4]benzodiazepines” (priority 1969, dated 1976).

How the values were obtained:
Assay type in all cases: in vivo
[1] = system: mice; experiment: Nicotine antagonism test (nicotine salicylate 2 mg./kg.); conditions: Mus musculus
Experimental: Nicotine antagonism test: Mice in a group of 6 are injected with the test compound (8-chloro-1-methyl-6-phenyl-4H-s-triazolo[4,3-a][1,4]benzodiazepine). Thirty minutes later the mice including control (untreated) mice are injected with nicotine salicylate (2 mg./kg.). The control mice show overstimulation, i.e., (1) running convulsions followed by (2) tonic extensor fits; followed by (3) death.
Ni =]nicotine antagonism (3) test

[2] = system: mice; experiment: Chimney test: ability of mice to back up and out of a vertical glass cylinder within 30 seconds; conditions: Mus musculus, ip
Experimental: (§1) Sedative effects of 8-chloro-1-methyl-6-phenyl-4H-s-triazolo-[4,3-a][1,4]benzodiazepine are shown by the following tests in mice:
Chimney test: [Med. Exp. 4, 145 (1961)]: The effective intraperitoneal dosage for 50% of mice (ED50) is 0.09 mg./kg. The test determines the ability of mice to back up and out of a vertical glass cylinder within 30 seconds. At the effective dosage, 50% of the mice failed doing it.

[3] = system: mice; experiment: Pedestal test: mice staying on the pedestal for more than 1 minute; conditions: Mus musculus
Experimental: as §1
Pedestal test: The untreated mouse leaves the pedestal in less than a minute to climb back to the floor of the standard mouse box. Tranquilized mice will stay on the pedestal for more than 1 minute. The ED50 (intraperitoneal administration) is 0.20 mg./kg.; the ED50 (oral administration) is 0.9 mg.kg.

[4] = system: mice; experiment: Dish test: mice remaining in Petri dish for more than 3 minutes; conditions: Mus musculus
Experimental: as §1
Dish test: Mice in Petri dishes (10 cm. diameter, 5 cm. high, partially embedded in wood shavings), climb out in a very short time, when not treated. Mice remaining in the dish for more than 3 minutes indicates tranquilization. ED50 equals the dose of test compound at which 50% of the mice remain in the dish.

[5] = system: mice; experiment: Antagonism to strychnine (as sulfate), 3 mg./kg. intraperitoneally; conditions: Mus musculus, po, 4 h, read-out: effective dosage ED50, antagonism to strychnine
Experimental: Antagonism to strychnine (as sulfate): The effective dosage ED50 of 8-chloro-1-methyl-6-phenyl-4H-s-triazolo[4,3-a][1,4]benzodiazepine is 1 mg./kg. orally in mice. The test consists in orally administering into groups of 6 mice the test compound, 8-chloro-1-methyl-6-phenyl-4H-s-triazolo[4,3-a][1,4]benzodiazepine, and 30 minutes later 3 mg./kg. strychnine sulfate intraperitoneally. The survivors after 4 hours reflect the activity of the compound as a muscle relaxant and antispasmodic. A dosage of 3 mg./kg. of strychnine sulfate is routinely fatal to all the control mice.

[6] = ip, intraperitoneal injection, table 1, read-out: ED50 Ni (nicotine antagonism (3) test)
[7] = intraperitoneal injection, table 1, read-out: ED50 Ch (chimney test)
[8] = ip, intraperitoneal injection, table 1, read-out: ED50 P (pedestal test)
[9] = ip, intraperitoneal injection, table 1, read-out: ED50 D (dish test)

Compound	ED50 [1, 6] [mg/kg]	ED50 [2, 7] [mg/kg]	ED50 [3, 8] [mg/kg]	ED50 [4, 9] [mg/kg]	ED50 [5] [mg/kg]	ED50 ([1]; ip, intraperitoneal, 30 minutes before nicotine salicylate 2 mg./kg., mice, read-out: intraperitoneal dosage that protected 50% of the mice against (2) tonic extensor fits and (3) death (ED50)) [mg/kg]	ED50 ([1]; oral, before nicotine salicylate 2 mg./kg., mice, read-out: oral ED50, nicotine antagonism) [mg/kg]	ED50 ([2]; intraperitoneal, mice, read-out: effective intraperitoneal dosage for 50% of mice (ED50), chimney test) [mg/kg]	ED50 ([3]; ip, intraperitoneal administration, mice, read-out: ED50, pedestal test) [mg/kg]	ED50 ([3]; oral administration, mice, read-out: ED50, pedestal test) [mg/kg]	ED50 ([4]; ip, intraperitoneal administration, mice, read-out: ED50, dish test) [mg/kg]	ED50 ([4]; oral, mice, read-out: oral ED50, dish test) [mg/kg]
CCc1nnc2n1-c1ccc(Cl)cc1C(c1ccccc1)=NC2 [8-Chloro-1-ethyl-6-phenyl-4H-s-triazolo[4,3-a]-[1,4]benzodiazepine]	0.2	0.8	0.9	0.9	–	–	–	–	–	–	–	–
Cc1nnc2n1-c1ccc(Cl)cc1C(c1c(F)cccc1F)=NC2 [8-chloro-1-methyl-6-(2,6-difluorophenyl)-4H-s-triazolo[4,3-a][1,4]benzodiazepine]	0.018	0.009	0.02	0.016	–	–	–	–	–	–	–	–
Cc1nnc2n1-c1ccc(Cl)cc1C(c1ccccc1Cl)=NC2 [8-Chloro-1-methyl-6-(o-chlorophenyl)-4H-s-triazolo[4,3-a][1,4]benzodiazepin]	0.008	0.05	0.045	0.028	–	–	–	–	–	–	–	–
Clc1ccc2c(c1)C(c1ccccc1)=NCc1nncn1-2 [8-chloro-6-phenyl-4H-s-triazolo[4,3-a][1,4]benzodiazepine]	0.08	0.25	0.7	0.4	–	–	–	–	–	–	–	–
Cc1nnc2n1-c1ccc(C(F)(F)F)cc1C(c1ccccc1)=NC2 [1-methyl-6-phenyl-8-(trifluoromethyl)-4H-s-triazolo[4,3-a][1,4]benzodiazepine]	0.08	0.16	0.22	0.16	–	–	–	–	–	–	–	–
Cc1nnc2n1-c1ccc(Cl)cc1C(c1ccccc1)=NC2 [8-chloro-1-methyl-6-phenyl-4H-s-triazolo[4,3-a][1,4]benzodiazepine]	–	–	–	–	1	0.1	0.04	0.09	0.2	0.9	0.15	0.045
Cc1nnc2n1-c1ccc(Cl)cc1C(c1ccccc1F)=NC2 [8-chloro-1-methyl-6-(o-fluorophenyl)-4H-s-triazolo[4,3-a][1,4]benzodiazepine]	0.009	0.056	0.028	0.016	–	–	–	–	–	–	–	–
